Experimental data taken from patent US4309305A, “In vitro removal of actinide (IV) ions” (priority 1979, dated 1982).

Assays:
[1] = Distribution of ^238 Pu-citrate in Mouse Tissues (actinide-ion sequestering activity, animal studies); assay type: in vivo; set-up: Liver, distribution of ^238 Pu-citrate (mean) / Skel, distribution of ^238 Pu-citrate (mean) / G.I., distribution of ^238 Pu-citrate (mean) / Kidney, distribution of ^238 Pu-citrate (mean) / Total, distribution of ^238 Pu-citrate: unit not given here
Experimental: Specifically, animal studies were carried out with compounds 2, 3, 4, and 10.
Distribution of ^238 Pu-Citrate in Mouse Tissues
Age of animals 74 weeks 74 weeks
^(b) Animals injected I.P. (Intraperitoneum)
(§1) Distribution of ^238 Pu-citrate in Mouse Tissues
Age of Animals 68 weeks 68 weeks
^(a) Animals injected I.M. (Intramuscular)
as §1
^(b) Animals injected I.P.
Age of animals 18 weeks 18 weeks
^(a) Animals injected I.M.

[2] = pH-titration of the constituent catechol groups; assay type: physicochemical; conditions: 4 protons, 4 constituent catechol groups
Experimental: Compound 2. Using method B, precusor 3 (1.0 g, 1.0 mmol) dissolved in CH2 Cl2 (25 ml) was added dropwise (15 min) via an addition funnel to an ice bath cooled, vigorously stirred solution of BBR3 (2 ml, 21 mmol) in CH2 Cl2 solution (25 ml). The ice bath was allowed to warm up to room temperature as the reaction slurry was stirred overnight. Cautious addition of H2 O (20 ml) was followed by an additional 2 hrs stirring to hydrolyze all boron compounds. Crude product was collected by filtration and washed well with H2 O. The pink-tan solid was dissolved in MeOH and precipitated by the addition of Et2 O. Drying at 115° (5-10 microns) overnight gave the demethylated product, compound 2 (0.88 mmol, 88%) as hygroscopic powder which analyzed with two waters of crystallization: m.p.
Compound 3 (1.0 g, 1.2 mmol) was dissolved in 98% H2 SO4 (5 ml), then SOCl2 (5 ml, 55 mmol) was added dropwise over a period of 1 hr with vigorous stirring. The reactants were protected from the atmosphere with a Drierite tube. After stirring overnight, the reaction mixture was poured onto ice. Workup as in method C gave white solid, 1.49 g (1.0 mmol, 85%) which analyzed as compound 4.3 NaCl.H2 O: IR (KBr) identical to that recorded in method A; purity also established by pH-titration giving pKa1 8.12 (4 protons) and pKa2 12.0 (4 protons) for the four constituent catechol groups.
Using precisely the same Method D, compound 7 was converted to compound 8. Thus was obtained hygroscopic white solid, 1.4 g (90%); IR (KBr) 2800-3700 s, 1600 s (>N--CO--), 1475, 1425 m, 1150-1300 s (--SO3 ^-1), 1100, 1045 s (--SO3^-), 620 (--SO3^-); purity also established by pH-titration giving pKa1 7.49 (4 protons) and pKa2 12.1 (4 protons) for the four constituent catechol groups.

[3] = qualitative observation of dissolution of Pu(IV) in the presence of the compound
animals = experiment: Toxicity studies / toxicity to animals; conditions: in vivo
[4] = I.M., killed 1 day after Pu injection, 18 weeks old
[5] = I.P., killed 1 day after Pu injection, 13.5 weeks old
[6] = I.P., killed 2 days after Pu injection, 74 weeks old
[7] = I.M., killed 2 days after Pu injection, 68 weeks old

## 1,4,8,11-N,N',N'',N'''-Tetra(2,3-dihydroxybenzoyl)tetraazaundecane potassium sulfonate [Compound 10]
[1]; [4]
  Feces, distribution of ^238 Pu-citrate (mean): 2.2
  G.I., distribution of ^238 Pu-citrate (mean): 10.2
  Kidney, distribution of ^238 Pu-citrate (mean): 4.8
  Liver, distribution of ^238 Pu-citrate (mean): 28.8
  Skel, distribution of ^238 Pu-citrate (mean): 12.1
  Skin, distribution of ^238 Pu-citrate (mean): 5.7
  Soft Tis, distribution of ^238 Pu-citrate (mean): 7.1
  Total, distribution of ^238 Pu-citrate: 101.1
  Urine, distribution of ^238 Pu-citrate (mean): 29.2

## 1,5,9,13-N,N',N'',N'''-Tetra(2,3-dihydroxybenzoyl)tetraazacyclohexadecane sodium sulfonate [Compound 4]
[1]; [5]
  Feces, distribution of ^238 Pu-citrate (mean): 3.1
  G.I., distribution of ^238 Pu-citrate (mean): 8.2
  Kidney, distribution of ^238 Pu-citrate (mean): 3.9
  Liver, distribution of ^238 Pu-citrate (mean): 24.8
  Skel, distribution of ^238 Pu-citrate (mean): 15.7
  Skin, distribution of ^238 Pu-citrate (mean): 4.1
  Soft Tis, distribution of ^238 Pu-citrate (mean): 6.4
  Total, distribution of ^238 Pu-citrate: 100
  Urine, distribution of ^238 Pu-citrate (mean): 33.8
[2]
  pKa1: 8.12
  pKa2: 12.0

## 1,6,11,16-N,N',N'',N'''-Tetra(2,3-dihydroxybenzoyl)tetraazahexadecane potassium sulfonate [Compound 8]
[2]
  pKa1: 7.49
  pKa2: 12.1

## O=C(c1cccc(O)c1O)N1CCCN(C(=O)c2cccc(O)c2O)CCN(C(=O)c2cccc(O)c2O)CCCN(C(=O)c2cccc(O)c2O)CC1 [Compound 1, 1,4,8,11-N,N',N'',N'''-Tetra(2,3-dihydroxybenzoyl)tetraazacyclotetradecane]
[3]; even at high pH, qualitative
  dissolution of Pu(IV) in presence of compound: Pu(IV) dissolved in the presence of compound 1 even at high pH
[3]; inferred from dissolution of Pu(IV) and Ksp for Pu(OH)4
  formation constant for the Pu(IV) complex: very high formation constant

## O=C(c1ccc([N+](=O)[O-])c(O)c1O)N1CCCN(C(=O)c2ccc([N+](=O)[O-])c(O)c2O)CCN(C(=O)c2ccc([N+](=O)[O-])c(O)c2O)CCCN(C(=O)c2ccc([N+](=O)[O-])c(O)c2O)CC1 [Compound 2, 1,4,8,11-N,N',N'',N'''-Tetra(2,3-dihydroxy-4-nitrobenzoyl)tetraazacyclotetradecane]
[1]; [6]
  Feces, distribution of ^238 Pu-citrate (mean): 5.4
  G.I., distribution of ^238 Pu-citrate (mean): 16.3
  Kidney, distribution of ^238 Pu-citrate (mean): 6.0
  Liver, distribution of ^238 Pu-citrate (mean): 36.6
  Skel, distribution of ^238 Pu-citrate (mean): 7.9
  Skin, distribution of ^238 Pu-citrate (mean): 11.2
  Soft Tis, distribution of ^238 Pu-citrate (mean): 14.8
  Total, distribution of ^238 Pu-citrate: 100
  Urine, distribution of ^238 Pu-citrate (mean): 1.8
[2]
  pKa1: 5.59
  pKa2: 11.8
animals
  toxicity to animals: toxic to animals

## O=C(c1cccc(O)c1O)N1CCCN(C(=O)c2cccc(O)c2O)CCCN(C(=O)c2cccc(O)c2O)CCCN(C(=O)c2cccc(O)c2O)CCC1 [Compound 3, 1,5,9,13-N,N',N'',N'''-Tetra(2,3-dihydroxybenzoyl)tetraazacyclohexadecane]
[1]; [7]
  G.I., distribution of ^238 Pu-citrate (mean): 4.4
  Kidney, distribution of ^238 Pu-citrate (mean): 42.1
  Liver, distribution of ^238 Pu-citrate (mean): 23.3
  Skel, distribution of ^238 Pu-citrate (mean): 20.3
  Total, distribution of ^238 Pu-citrate: 101.6
  Urine, Feces (one value printed between both lines), distribution of ^238 Pu-citrate (mean): 11.5
animals
  acute toxicity: substantially acutely non-toxic
